{"source": "paper PMC9085577", "about": "“Discovery of a Potent and Orally Active Dual GPBAR1/CysLT1R Modulator for the Treatment of Metabolic Fatty Liver Disease” (Frontiers in Pharmacology, 2022)", "test_system": "liver transcriptome", "experiment": "AmpliSeq liver transcriptome of HFD-F mice", "type": "in vivo", "settings": "liver", "text": "C57BL/6J male mice were fed a high fat diet (HFD) containing 59 KJ% fat plus 1% cholesterol, w/o sugar (ssniff ® EF R/M acc. D12330 mod. 22,7 ME/kg) and fructose (HFD-F) in drinking water (42 g/L), or normal chow diet for 61 days. Food intake was estimated as the difference of weight between the offered and the remnant amount of food at 3-days intervals. The food was provided as pressed pellets and the residual spillage was not considered. After 7 days, HFD-F mice were randomized to receive HFD-F alone or in combination with compound 2 (30 mg/kg/day) by gavage until the end of the experiment. Doses of each agent were chosen according to previously published data. Mice were housed under controlled temperature (22°C) and photoperiods (12:12-h light/dark cycle), allowed unrestricted access to standard mouse chow and tap water. The experimental protocol was approved by the Animal Care and Use Committee of the University of Perugia and by the Italian Minister of Health and Istituto Superiore di Sanità (Italy) and was in agreement with the European guidelines for use of experimental animals (permission n. 583/2017-PR). The general health of the animals was monitored daily by the Veterinarian in the animal facility. At the day of sacrifice, fed mice were deeply anesthetized with a mixture of tiletamine hypochloride and zolazepam hypochloride/xylazine at a dose of 50/5 mg/kg and sacrificed before 12 a.m.\nHigh-quality RNA was extracted from mice livers, using the Direct-zol™ RNA MiniPrep w/Zymo-Spin™ IIC Columns (Zymo Research, Irvine, CA) according to the manufacturer’s instructions. RNA quality and quantity were assessed with the Qubit® RNA HS Assay Kit and a Qubit 3.0 fluorometer (Invitrogen, Carlsbad, CA) followed by agarose gel electrophoresis. Libraries were generated using the Ion AmpliSeq™ Transcriptome Mouse Gene Expression Core Panel and Chef-Ready Kit (Comprehensive evaluation of AmpliSeq transcriptome, a whole transcriptome RNA sequencing methodology) (Thermo Fisher Scientific, Waltham, MA). Briefly, 10 ng of RNA was reverse transcribed with SuperScript™ Vilo™ cDNA Synthesis Kit (Thermo Fisher Scientific, Waltham, MA) before library preparation on the Ion Chef™ instrument (Thermo Fisher Scientific, Waltham, MA). The resulting cDNA was amplified to prepare barcoded libraries using the Ion Code™ PCR Plate, and the Ion AmpliSeq™ Transcriptome Mouse Gene Expression Core Panel (Thermo Fisher Scientific, Waltham, MA), Chef-Ready Kit, according to the manufacturer’s instructions. Barcoded libraries were combined to a final concentration of 100 p.m., and used to prepare Template-Positive Ion Sphere™ (Thermo Fisher Scientific, Waltham, MA) Particles to load on Ion 540™ Chips, using the Ion 540™ Kit-Chef (Thermo Fisher Scientific, Waltham, MA). Sequencing was performed on an Ion S5™ Sequencer with Torrent Suite™ Software v6 (Thermo Fisher Scientific, Waltham, MA). The analyses were performed with a range of fold <−2 and >+2 and a p value <0.05, using Transcriptome Analysis Console Software (version 4.0.1), certified for AmpliSeq analysis (Thermo-Fisher). The transcriptomic data have been deposited as dataset on Mendeley data repository (reference number linking to the repository: Fiorucci, Stefano; Biagioli, Michele; Marchianò, Silvia; Di Giorgio, Cristina (2021), “Discovery of potent dual GPBAR1/CysLT1R modulator for the treatment of metabolic fatty liver disease,” Mendeley Data, V1, doi: 10.17632/6dnrk9fc72.1).", "data": [{"smiles": "O=C(O)c1cccc(-c2ccc(OCc3ccc4ccccc4n3)cc2)c1", "note": "[Compound 2, 4'-(quinolin-2-ylmethoxy)-[1,1′-biphenyl]-3-carboxylic acid]", "values": [{"measurement": "Uhrf1 transcript Avg (log2)", "setting": "HFD-F + compound 2", "result": 0.79, "unit": "log2"}, {"measurement": "Upp2 transcript Avg (log2)", "setting": "HFD-F + compound 2", "result": 9.06, "unit": "log2"}, {"measurement": "Usp2 transcript Avg (log2)", "setting": "HFD-F + compound 2", "result": 5.61, "unit": "log2"}, {"measurement": "Wrn transcript Avg (log2)", "setting": "HFD-F + compound 2", "result": 3.27, "unit": "log2"}, {"measurement": "Zfp101 transcript Avg (log2)", "setting": "HFD-F + compound 2", "result": 1.28, "unit": "log2"}, {"measurement": "Zfp445 transcript Avg (log2)", "setting": "HFD-F + compound 2", "result": 6.23, "unit": "log2"}, {"measurement": "1810011O10Rik transcript Fold Change", "setting": "HFD-F + compound 2 vs HFD-F", "result": -2.01}, {"measurement": "2310001K24Rik transcript Fold Change", "setting": "HFD-F + compound 2 vs HFD-F", "result": 2.31}, {"measurement": "2310039H08Rik transcript Fold Change", "setting": "HFD-F + compound 2 vs HFD-F", "result": -2.25}, {"measurement": "4833423E24Rik transcript Fold Change", "setting": "HFD-F + compound 2 vs HFD-F", "result": 2.15}, {"measurement": "6430573F11Rik transcript Fold Change", "setting": "HFD-F + compound 2 vs HFD-F", "result": -2.15}, {"measurement": "AW549542 transcript Fold Change", "setting": "HFD-F + compound 2 vs HFD-F", "result": 2.59}, {"measurement": "Abcb1a transcript Fold Change", "setting": "HFD-F + compound 2 vs HFD-F", "result": 2.07}, {"measurement": "Acod1 transcript Fold Change", "setting": "HFD-F + compound 2 vs HFD-F", "result": -7.35}, {"measurement": "Acot3 transcript Fold Change", "setting": "HFD-F + compound 2 vs HFD-F", "result": 2.07}, {"measurement": "Adam8 transcript Fold Change", "setting": "HFD-F + compound 2 vs HFD-F", "result": -2.4}, {"measurement": "Adam11 transcript Fold Change", "setting": "HFD-F + compound 2 vs HFD-F", "result": 2.06}, {"measurement": "Anxa2 transcript Fold Change", "setting": "HFD-F + compound 2 vs HFD-F", "result": -2.16}, {"measurement": "Apcs transcript Fold Change", "setting": "HFD-F + compound 2 vs HFD-F", "result": -2.14}, {"measurement": "Arntl transcript Fold Change", "setting": "HFD-F + compound 2 vs HFD-F", "result": -2.68}, {"measurement": "Arsg transcript Fold Change", "setting": "HFD-F + compound 2 vs HFD-F", "result": -2.22}, {"measurement": "Atp1a3 transcript Fold Change", "setting": "HFD-F + compound 2 vs HFD-F", "result": -2.15}, {"measurement": "Aurka transcript Fold Change", "setting": "HFD-F + compound 2 vs HFD-F", "result": -2.11}, {"measurement": "Avpr1a transcript Fold Change", "setting": "HFD-F + compound 2 vs HFD-F", "result": -2.31}, {"measurement": "Bcat1 transcript Fold Change", "setting": "HFD-F + compound 2 vs HFD-F", "result": -2.27}, {"measurement": "C920009B18Rik transcript Fold Change", "setting": "HFD-F + compound 2 vs HFD-F", "result": -2.05}, {"measurement": "Cabyr transcript Fold Change", "setting": "HFD-F + compound 2 vs HFD-F", "result": 2.35}, {"measurement": "Capn11 transcript Fold Change", "setting": "HFD-F + compound 2 vs HFD-F", "result": 3.56}, {"measurement": "Ccl2 transcript Fold Change", "setting": "HFD-F + compound 2 vs HFD-F", "result": "–9.45"}, {"measurement": "Ccl3 transcript Fold Change", "setting": "HFD-F + compound 2 vs HFD-F", "result": "–45.68"}, {"measurement": "Ccl4 transcript Fold Change", "setting": "HFD-F + compound 2 vs HFD-F", "result": -3.76}, {"measurement": "Ccl7 transcript Fold Change", "setting": "HFD-F + compound 2 vs HFD-F", "result": -5.24}, {"measurement": "Ccl9 transcript Fold Change", "setting": "HFD-F + compound 2 vs HFD-F", "result": -2.83}, {"measurement": "Cd9 transcript Fold Change", "setting": "HFD-F + compound 2 vs HFD-F", "result": -2.05}, {"measurement": "Cd14 transcript Fold Change", "setting": "HFD-F + compound 2 vs HFD-F", "result": -2.38}, {"measurement": "Cd36 transcript Fold Change", "setting": "HFD-F + compound 2 vs HFD-F", "result": -2.5}, {"measurement": "Cd63 transcript Fold Change", "setting": "HFD-F + compound 2 vs HFD-F", "result": -2.18}, {"measurement": "Cdk1 transcript Fold Change", "setting": "HFD-F + compound 2 vs HFD-F", "result": -2.15}, {"measurement": "Cdkl2 transcript Fold Change", "setting": "HFD-F + compound 2 vs HFD-F", "result": -2.13}, {"measurement": "Cdkn1a transcript Fold Change", "setting": "HFD-F + compound 2 vs HFD-F", "result": -7.58}, {"measurement": "Cdkn3 transcript Fold Change", "setting": "HFD-F + compound 2 vs HFD-F", "result": -2.22}, {"measurement": "Ces2b transcript Fold Change", "setting": "HFD-F + compound 2 vs HFD-F", "result": 3.35}, {"measurement": "Cetn4 transcript Fold Change", "setting": "HFD-F + compound 2 vs HFD-F", "result": 2.21}, {"measurement": "Chka transcript Fold Change", "setting": "HFD-F + compound 2 vs HFD-F", "result": -3.91}, {"measurement": "Chrna4 transcript Fold Change", "setting": "HFD-F + compound 2 vs HFD-F", "result": -3.1}, {"measurement": "Cidea transcript Fold Change", "setting": "HFD-F + compound 2 vs HFD-F", "result": -4.55}, {"measurement": "Cidec transcript Fold Change", "setting": "HFD-F + compound 2 vs HFD-F", "result": -3.63}, {"measurement": "Cirbp transcript Fold Change", "setting": "HFD-F + compound 2 vs HFD-F", "result": 2.31}, {"measurement": "Ckap2 transcript Fold Change", "setting": "HFD-F + compound 2 vs HFD-F", "result": -2.19}, {"measurement": "Clec4e transcript Fold Change", "setting": "HFD-F + compound 2 vs HFD-F", "result": -2.29}, {"measurement": "Clec4d transcript Fold Change", "setting": "HFD-F + compound 2 vs HFD-F", "result": -2.99}, {"measurement": "Col27a1 transcript Fold Change", "setting": "HFD-F + compound 2 vs HFD-F", "result": 3.11}, {"measurement": "Csf3 transcript Fold Change", "setting": "HFD-F + compound 2 vs HFD-F", "result": -6.94}, {"measurement": "Cxcl2 transcript Fold Change", "setting": "HFD-F + compound 2 vs HFD-F", "result": "–12.23"}, {"measurement": "Cyp1a2 transcript Fold Change", "setting": "HFD-F + compound 2 vs HFD-F", "result": 4.77}, {"measurement": "Cyp2a5 transcript Fold Change", "setting": "HFD-F + compound 2 vs HFD-F", "result": 2.79}, {"measurement": "Cyp7a1 transcript Fold Change", "setting": "HFD-F + compound 2 vs HFD-F", "result": 3.98}, {"measurement": "Cyp17a1 transcript Fold Change", "setting": "HFD-F + compound 2 vs HFD-F", "result": -2.12}, {"measurement": "D17H6S56E-5 transcript Fold Change", "setting": "HFD-F + compound 2 vs HFD-F", "result": -2.1}, {"measurement": "Dbp transcript Fold Change", "setting": "HFD-F + compound 2 vs HFD-F", "result": 3.21}, {"measurement": "Defb1 transcript Fold Change", "setting": "HFD-F + compound 2 vs HFD-F", "result": -2.44}, {"measurement": "Derl2 transcript Fold Change", "setting": "HFD-F + compound 2 vs HFD-F", "result": -2.01}, {"measurement": "Dhrs9 transcript Fold Change", "setting": "HFD-F + compound 2 vs HFD-F", "result": -2.42}, {"measurement": "Dtx4 transcript Fold Change", "setting": "HFD-F + compound 2 vs HFD-F", "result": -2.1}, {"measurement": "Dusp8 transcript Fold Change", "setting": "HFD-F + compound 2 vs HFD-F", "result": -2.11}, {"measurement": "Egr1 transcript Fold Change", "setting": "HFD-F + compound 2 vs HFD-F", "result": -4.09}, {"measurement": "Ell transcript Fold Change", "setting": "HFD-F + compound 2 vs HFD-F", "result": 2.35}, {"measurement": "Elovl3 transcript Fold Change", "setting": "HFD-F + compound 2 vs HFD-F", "result": -2.38}, {"measurement": "Elovl5 transcript Fold Change", "setting": "HFD-F + compound 2 vs HFD-F", "result": -2.41}, {"measurement": "Ephb2 transcript Fold Change", "setting": "HFD-F + compound 2 vs HFD-F", "result": -2.63}, {"measurement": "Epm2aip1 transcript Fold Change", "setting": "HFD-F + compound 2 vs HFD-F", "result": -2.65}, {"measurement": "Fam57a transcript Fold Change", "setting": "HFD-F + compound 2 vs HFD-F", "result": 2.55}, {"measurement": "Fgf21 transcript Fold Change", "setting": "HFD-F + compound 2 vs HFD-F", "result": -6.9}, {"measurement": "Fxyd2 transcript Fold Change", "setting": "HFD-F + compound 2 vs HFD-F", "result": -2.25}, {"measurement": "Gdf15 transcript Fold Change", "setting": "HFD-F + compound 2 vs HFD-F", "result": -3.99}, {"measurement": "Glipr1 transcript Fold Change", "setting": "HFD-F + compound 2 vs HFD-F", "result": -2.13}, {"measurement": "Glipr2 transcript Fold Change", "setting": "HFD-F + compound 2 vs HFD-F", "result": -2.29}, {"measurement": "Gm16063 transcript Fold Change", "setting": "HFD-F + compound 2 vs HFD-F", "result": 2.05}, {"measurement": "Gm30692 transcript Fold Change", "setting": "HFD-F + compound 2 vs HFD-F", "result": -2.13}, {"measurement": "Gm31555 transcript Fold Change", "setting": "HFD-F + compound 2 vs HFD-F", "result": 2.49}]}]}
